The values that follow come from US20150192570A1, “METHODS FOR DETERMINING WHETHER A CYTOMEGALOVIRUS INFECTION IN A TRANSPLANTED PATIENT IS SUCEPTIBLE TO INDUCE ALLOGRAFT REJECTION” (priority 2012, published 2015).

Where only a bound is given, the exact number is not on record here.

Assay [1] relates to MART.22 HLA-E-restricted CD8 T cells. Put plainly: TNF production by MART.22 against unrecognized endothelial culture HAEC#402 pulsed with synthetic peptides. To be noted: HAEC#402 loaded with 10^2 μM of peptide. The assay is classed as cell-based, human. Here is the method: A/ Reactivity of HLA-E-restricted T cells against unrecognized endothelial cultures pulsed with synthetic peptides. HAECs were incubated for 1 h with range concentrations of the indicated peptides before MART.22 T cells were added. After 6 h, T cells were fixed, permeabilized and stained for intracellular TNF-α. Results are expressed as percentage of TNF-producing T cells. B/ Impact of KIR2DL2-ligands expression by HAECs on HLA-E-restricted T cells alloreactivity. Percentages of TNF-producing MART.22 T cells are shown for HAECs with none, one or two protective HLA-C alleles. C/ Reactivity of HLA-E-restricted T cells against unrecognized endothelial cultures in the presence of blocking antibodies. HAECs were incubated with MART.22 T cells in the presence or not of indicated concentrations of blocking antobodies. After 6 h, T cells were fixed, permeabilized and stained for intracellular TNF-α. Results are expressed as percentage of TNF-producing T cells.
(§1) For cytokine/perforine/granzyme intracellular staining, 1×10^5 T cells were stimulated in the presence of Brefeldin A (Sigma-Aldrich, 10 μg/ml) with 2×10^5 target cells (B-EBV cells or HAEC) for 6 h at 37° C., in the presence or not of blocking Abs. […] Cells were then fixed with 4% paraformaldehyde (Sigma-Aldrich), labeled with specific mAbs and analyzed by flow cytometry.

The test system is the same in assay [2]. Nature of the assay: Peptide/HLA-E*0101 tetramer staining of MART.22 T cells by flow cytometry. The assay is classed as binding, human. Particulars: PE-streptavidin tetramers, 1 h. The method, then: A/ TNF production in response to stimulation with .221 cells pulsed with synthetic peptides. .221 cells were incubated for 1 h with range concentrations of the indicated peptides before addition of MART.22 T cells. After 6 h, T cells were fixed, permeabilized and stained for intracellular TNF-α. Results are expressed as percentage of TNF-producing T cells. B/ Peptide-MHC tetramer staining of HLA-E-restricted CD8 T cells. MART.22 T cells were incubated for 1 h with biotyniled HLA-E monomers refolded with the indicated peptides and tetramerized with PE-coupled streptavidin. Peptide-HLA-E tetramers staining was assessed by flow cytometry and MFI are indicated.
Peptides VMAPRTLLL and VMAPRTLVL (HLA-A*01- and HLA-A*02-derived signal peptides respectively) with purity >85% were purchased from Eurogentec (Angers, France). HLA-E*0101/peptide monomers were generated by the recombinant protein facility of SFR26 (Nantes, France).
For membrane staining, 2×10^5 cells were incubated at 4° C. with 10 μg/ml of Ab (specific or isotype control) or tetramers for 30 min or 1 h respectively. When non-conjugated mAb were used, a second incubation with PE-conjugated goat F(ab′)2 fragment anti-Mouse IgG (Beckman Coulters) was performed. 5×10^4 cells were acquired in the viable cells gate on a FACScalibur flow cytometer using CellQuest software (Becton Dickinson).
Background: In flow cytometry, cells or beads pass a laser one at a time.

In assay [3] the test system is HAEC. Put plainly: Surface expression of HLA-E and total HLA-I on endothelial cultures after IFN-γ treatment (flow cytometry). To be noted: IFN-γ 50 U/mL, 48 h. The format is cell-based, human. Here is the method:
(§2) A/ impact of IFN-γ treatment on surface expression of HLA-E (thick lines) and total HLA-I (dotted lines) molecules by endothelial cultures. MFI are indicated. B/ HLA-E-restricted CD8 T cells cytotoxicity toward endothelial cultures treated or not with IFN-γ. 103 ^51 Cr-labeled HAECs pretreated (closed circles) or not (open circle) with IFN-γ were co-cultured for 4 h with T cells at various E:T ratio. Cytotoxic activity was assessed trought measure of Chromium release in the supernatants. Percentages of specific lysis are indicated. Means and standard deviations of triplicate wells are shown for one representative experiments out of three performed. C/ HLA-E-restricted CD8 T cells cytokine production upon stimulation with endothelials cultures treated or not with IFN-γ. MART.22 T cells were fixed, permeabilized and stained for intracellular cytokines following 6 h of incubation with HAECs pretreated (black bars) or not (white bars) with INF-γ. Data are expressed as percentages of intracellular cytokine secreting T cells upon stimulation. D/ HLA-E-restricted CD8 T cells cytokine production upon stimulation with endothelials cultures treated or not by IFN-γ, in the presence of blocking antibodies. […] Data are expressed as percentages of intracellular TNF secreting T cells upon stimulation. […]

For assay [4], the system named is HAEC. Nature of the assay: Recognition (lysis, cytokine production) of IFN-γ treated endothelial cultures by MART.22. The format is cell-based, human. The method, then: as §2, with “stimulation.” for “stimulation. D/ HLA-E-restricted CD8 T cells cytokine production upon stimulation with endothelials cultures treated or not by IFN-γ, in the presence of blocking antibodies.”
as §1
Target cells were labeled with 100 μCi Na^51CrO4 (Oris Industrie, Gif-sur-Yvette, France) for 1 h at 37° C., and incubated 4 h at 37° C., with effectors T cells at various E/T ratios. […] Percentage of target cell lysis was calculated according to the following formula: [(experimental release−spontaneous release)/(maximum release−spontaneous release)]×100. Maximum and spontaneous releases were determined by, respectively, adding 0.1% Triton X-100 or medium to ^51Cr-labeled target cells in the absence of T cells.

Assay [5] deals with classical HLA-I molecules on IFN-γ treated HAEC#495. Nature of the assay: cell-based or functional assay.
Assay [6] concerns the target protective HLA-C molecules (KIR2DL2 ligands) expressed on HAEC. Nature of the assay: cell-based or functional assay.
For assay [7], the system named is MART.22 HLA-E-restricted CD8 T cells. Nature of the assay: TNF production by MART.22 T cells in response to .221 cells pulsed with synthetic peptides (intracellular TNF-α staining). To be noted: .221 cells loaded with synthetic peptide. The assay is classed as cell-based, human.
Protocol: For cytokine/perforine/granzyme intracellular staining, 1×10^5 T cells were stimulated in the presence of Brefeldin A (Sigma-Aldrich, 10 μg/ml) with 2×10^5 target cells (B-EBV cells or HAEC) for 6 h at 37° C., in the presence or not of blocking Abs. For peptide loading, target cells were incubated with peptides for 1 h at 37° C. before incubation with T cells. Cells were then fixed with 4% paraformaldehyde (Sigma-Aldrich), labeled with specific mAbs and analyzed by flow cytometry.

On to `CSCC[C@H](NC(=O)[C@@H](N)C(C)C)C(=O)N[C@@H](C)C(=O)N1CCC[C@H]1C(=O)N[C@@H](CCCNC(=N)N)C(=O)N[C@H](C(=O)N[C@@H](CC(C)C)C(=O)N[C@@H](CC(C)C)C(=O)N[C@@H](CC(C)C)C(=O)O)[C@@H](C)O` [VMAPRTLLL], for which, in assay [1], the “TNF secreting T cells” value stood at 40%. Also, the “binding of HLA-E*0101 tetramers refolded with the peptide to MART.22” value in assay [2] is “bind”.
Turning to `CSCC[C@H](NC(=O)[C@@H](N)C(C)C)C(=O)N[C@@H](C)C(=O)N1CCC[C@H]1C(=O)N[C@@H](CCCNC(=N)N)C(=O)N[C@H](C(=O)N[C@H](C(=O)N[C@@H](CC(C)C)C(=O)N[C@@H](CC(C)C)C(=O)O)C(C)C)[C@@H](C)O` [VMAPRTVLL], the “TNF secreting T cells” value in assay [1] worked out at 18%.
Turning to “IFN-γ: recombinant human IFN-γ (50 U/mL, Imukin, Boehringer Ingelheim)”, the “HLA-E and total HLA-I surface expression on endothelial cells” value in assay [3] is recorded as “enhances”. Also, the “MART.22 reactivity against IFN-γ treated HAEC#116” value in assay [4] (HAEC#116, unpublished data) is recorded as “completely abolished”. Also, the “MART.22 mediated lysis and cytokine production” value in assay [4] (IFN-γ treated endothelial cells) is “decreased”. In assay [4] (after IFN-γ treatment, 61% untreated), the “TNF-α producing T cells upon stimulation with HAEC#495” value came out at 33%.
In turn, “ILT-2 expressed by MART.22 T cells (from UniProt Q8NHL6 24-650) (receptor)” gave a TNF-α producing T cells against IFN-γ treated endothelial cells at the maximal dose of mAb against classical HLA-I molecules in assay [5] of 69%.
“KIR2DL2 expressed by MART.22 T cells (from UniProt P43627 22-348) (receptor)” registered a TNF-α producing T cells against IFN-γ treated endothelial cells at the maximal dose of mAb against classical HLA-I molecules in assay [5] of 69%. Moreover, in assay [6], the TNF producing T cells, endothelial cells with no appropriate HLA-C allele (HAEC#323) was found to be 75%; the TNF producing T cells, endothelial cells with only one appropriate HLA-C allele (HAEC#112, #331 and #495) came to 54%; the TNF producing T cells, mean value for endothelial cells with two appropriate HLA-C alleles (HAEC#116, #337 and #402) is 18%; the TNF-producing T cells against HAEC#402 in the presence of anti-HLA-A/B/C Abs was less than 25%.
Take “VMAPRTLVL [HLA-A*02-derived signal peptide, identical to a CMV UL40 peptide]”: the “recognition of peptide-pulsed .221 cells by MART.22” value (“recognition” for short) in assay [7] is reported as “not recognized at all”. In addition, the “binding of HLA-E*0101 tetramers refolded with the peptide to MART.22” value in assay [2] is “no significant binding”.
Turning to VTAPRTLLL, the “recognition” value in assay [7] is listed as “not recognized at all”.
For the compound VTAPRTVLL, in assay [7], the “recognition” value is on record as “not recognized at all”.
